In brackets after ≈: the same amount, converted by molar mass.
Assays:
[1] = test system: Proteus mirabilis 9'; assay: MIC, agar plate doubling dilution method; type: cell-based; conditions: HI agar, 37° C., 20 hours, read-out: minimum inhibitory concentration (MIC)
Description: (§1) Invitro antibacterial activity was measured by the agar plate doubling dilution method described below. A test culture incubated overnight in a heart infusion broth was diluted by 100 to 1000 fold and one […] of the culture was inoculated on heart infusion agars (HI agar) containing various concentrations of a specific compound and the inoculates were incubated at 37° C. for 20 hours.

[2] = test system: Pseudomonas aeruginosa J-169; assay: MIC, agar plate doubling dilution method; type: cell-based; conditions: J169, HI agar, 37° C., 20 hours, read-out: minimum inhibitory concentration (MIC)
Description: as §1

[3] = test system: Salmonella paratyphi A; assay: MIC, agar plate doubling dilution method; type: cell-based; conditions: Salmonella enterica, 20 h, read-out: minimum inhibitory concentration (MIC)
Description: as §1

[4] = test system: Pseudomonas aeruginosa J-169-CM-222; assay: MIC, agar plate doubling dilution method; type: cell-based; conditions: J169CM222, HI agar, 37° C., 20 hours, read-out: minimum inhibitory concentration (MIC)
Description: as §1

[5] = test system: Shigella flexneri 2b; assay: MIC, agar plate doubling dilution method; type: cell-based; conditions: HI agar, 37° C., 20 hours, read-out: minimum inhibitory concentration (MIC)
Description: as §1

[6] = test system: Klebsiella pneumoniae 15c; assay: MIC, agar plate doubling dilution method; type: cell-based; conditions: HI agar, 37° C., 20 hours, read-out: minimum inhibitory concentration (MIC)
Description: as §1

[7] = test system: Staphylococcus aureus 209P; assay: MIC, agar plate doubling dilution method; type: cell-based; conditions: HI agar, 37° C., 20 hours, read-out: minimum inhibitory concentration (MIC)
Description: as §1

[8] = test system: Bacillus subtilis POI-219; assay: MIC, agar plate doubling dilution method; type: cell-based; conditions: POI219, HI agar, 37° C., 20 hours, read-out: minimum inhibitory concentration (MIC)
Description: as §1

[9] = test system: Escherichia coli NIHJ; assay: MIC, agar plate doubling dilution method; type: cell-based; conditions: HI agar, 37° C., 20 hours, read-out: minimum inhibitory concentration (MIC)
Description: as §1

[10] = test system: Pseudomonas aeruginosa J-272; assay: MIC, agar plate doubling dilution method; type: cell-based; conditions: J272, HI agar, 37° C., 20 hours, read-out: minimum inhibitory concentration (MIC)
Description: as §1

[11] = test system: Pseudomonas aeruginosa J-272; assay: ED50 in mice infected intraperitoneally with Pseudomonas aeruginosa; type: in vivo, ddY male mice; conditions: subcutaneous 1 h and 3 h after inoculation, 1 × 10^4 cells inoculated i.p. in 5% mucin, survival five days after injection
Description: Five-week-old ddY male mice (five constituting one group) weighing 21 to 25 g on average were administered intraperitoneally with 5% mucin suspensions of test microorganisms that were incubated in brain heart infusion agar plates overnight at 37° C.
One hour and three hours after the inoculation, the mice were injected subcutaneously with various concentrations of the test compounds. The ED50 of each test compound was determined from the number of the mice that were still alive five days after injection of the respective doses.

SMILES	MIC [1] [µg/mL]	MIC [2] [µg/mL]	MIC [3] [µg/mL]	MIC [4] [µg/mL]	MIC [5] [µg/mL]	MIC [6] [µg/mL]	MIC [7] [µg/mL]	MIC [8] [µg/mL]	MIC [9] [µg/mL]	MIC [10] [µg/mL]	ED50 (SC) [11] [mg/head]
CC1(C)S[C@@H]2[C@H](NC(=O)[C@H](NC(=O)N(CCCO)C(=O)c3ccc(O)c(O)c3)c3ccccc3)C(=O)N2[C@H]1C(=O)O [compound (a), 6-[D(-)-α-{3-(3,4-dihydroxybenzoyl)-3-(3-hydroxypropyl)-1-ureido}-α-phenylacetamido]penicillanic acid]	1.56 (≈ 2.66 µM)	0.78 (≈ 1.33 µM)	≤ 0.1	3.12 (≈ 5.32 µM)	≤ 0.1	0.4 (≈ 0.682 µM)	0.78 (≈ 1.33 µM)	0.2 (≈ 0.341 µM)	0.4 (≈ 0.682 µM)	0.4 (≈ 0.682 µM)	0.61
CC1(C)S[C@@H]2[C@H](NC(=O)[C@H](NC(=O)N(CCO)C(=O)c3ccc(O)c(O)c3)c3ccccc3)C(=O)N2[C@H]1C(=O)O [compound (b), 6-[D(-)-α-{3-(3,4-dihydroxybenzoyl)-3-(2-hydroxyethyl)-1-ureido}-α-phenylacetamide]penicillanic acid]	3.12 (≈ 5.45 µM)	3.12 (≈ 5.45 µM)	≤ 0.1	25 (≈ 43.7 µM)	≤ 0.1	3.12 (≈ 5.45 µM)	1.56 (≈ 2.72 µM)	0.78 (≈ 1.36 µM)	6.25 (≈ 10.9 µM)	0.78 (≈ 1.36 µM)	1.20
CC1(C)S[C@@H]2[C@H](NC(=O)[C@H](NC(=O)N(CCOCCO)C(=O)c3ccc(O)c(O)c3)c3ccccc3)C(=O)N2[C@H]1C(=O)O [compound (c), 6-[D(-)-α-[3-(3,4-dihydroxybenzoyl)-3-{2-(2-hydroxyethoxy)ethyl}-1-ureidol]-α-phenylacetamido]-penicillanic acid]	1.56 (≈ 2.53 µM)	0.78 (≈ 1.26 µM)	≤ 0.1	1.56 (≈ 2.53 µM)	≤ 0.1	0.4 (≈ 0.649 µM)	0.4 (≈ 0.649 µM)	0.1 (≈ 0.162 µM)	0.4 (≈ 0.649 µM)	0.2 (≈ 0.324 µM)	1.48
COCCN(C(=O)N[C@@H](C(=O)N[C@@H]1C(=O)N2[C@@H]1SC(C)(C)[C@@H]2C(=O)O)c1ccccc1)C(=O)c1ccc(O)c(O)c1 [compound (d), 6-[D(-)-α-{3-(3,4-dihydroxybenzoyl)-3-(2-methyoxyethyl)-1-ureido}-α-phenylacetamide]-penicillanic acid]	0.2 (≈ 0.341 µM)	3.12 (≈ 5.32 µM)	≤ 0.1	3.12 (≈ 5.32 µM)	≤ 0.1	0.2 (≈ 0.341 µM)	0.78 (≈ 1.33 µM)	0.4 (≈ 0.682 µM)	0.4 (≈ 0.682 µM)	0.78 (≈ 1.33 µM)	1.52
CC(=O)OCCCN(C(=O)N[C@@H](C(=O)N[C@@H]1C(=O)N2[C@@H]1SC(C)(C)[C@@H]2C(=O)O)c1ccccc1)C(=O)c1ccc(O)c(O)c1 [compound (e), 6-[D(-)-α-{3-(3,4-dihydroxybenzoyl)-3-(3-acetoxypropyl)-1-ureido}-α-phenylacetamido]-penicillanic acid]	0.78 (≈ 1.24 µM)	3.12 (≈ 4.96 µM)	≤ 0.1	6.25 (≈ 9.94 µM)	≤ 0.1	0.4 (≈ 0.636 µM)	1.56 (≈ 2.48 µM)	0.4 (≈ 0.636 µM)	0.78 (≈ 1.24 µM)	0.4 (≈ 0.636 µM)	1.71
CC1(C)S[C@@H]2[C@H](NC(=O)[C@H](NC(=O)N(CCCO)C(=O)c3ccc(O)c(O)c3)c3ccc(O)cc3)C(=O)N2[C@H]1C(=O)O [compound (f), 6-[D(-)-α-{3-(3,4-dihydroxybenzoyl)-3-(3-hydroxypropyl)-1-ureido}-α-(4-hydroxyphenyl)acetamido]penicillanic acid]	1.56 (≈ 2.59 µM)	0.78 (≈ 1.29 µM)	≤ 0.1	3.12 (≈ 5.18 µM)	≤ 0.1	0.4 (≈ 0.664 µM)	0.78 (≈ 1.29 µM)	0.4 (≈ 0.664 µM)	0.78 (≈ 1.29 µM)	0.2 (≈ 0.332 µM)	1.18
CN(C(=O)N[C@@H](C(=O)N[C@@H]1C(=O)N2[C@@H]1SC(C)(C)[C@@H]2C(=O)O)c1ccccc1)C(=O)c1ccc(O)c(O)c1 [compound Z, 6-[D(-)-α-{3-(3,4-dihydroxybenzoyl)-3-methyl-1-ureido}-α-phenylacetamido]penicillanic acid, reference compound]	0.78 (≈ 1.44 µM)	0.2 (≈ 0.369 µM)	≤ 0.1	0.4 (≈ 0.737 µM)	≤ 0.1	≤ 0.1	0.4 (≈ 0.737 µM)	0.1 (≈ 0.184 µM)	0.2 (≈ 0.369 µM)	0.1 (≈ 0.184 µM)	2.30
CCN1CCN(C(=O)N[C@@H](C(=O)N[C@@H]2C(=O)N3[C@@H]2SC(C)(C)[C@@H]3C(=O)O)c2ccccc2)C(=O)C1=O [piperacillin, 6-[D(-)-α-(4-ethyl-2,3-dioxo-1-piperazinylcarbonylamino)phenylacetamido]penicillanic acid, reference compound]	0.78 (≈ 1.51 µM)	12.5 (≈ 24.2 µM)	0.4 (≈ 0.773 µM)	25 (≈ 48.3 µM)	0.78 (≈ 1.51 µM)	3.12 (≈ 6.03 µM)	≤ 0.2	0.2 (≈ 0.386 µM)	0.2 (≈ 0.386 µM)	12.5 (≈ 24.2 µM)	10.0

From patent US4355038A, “α-Substituted ureido-benzylpenicillanic acids” (Chugai Seiyaku Kabushiki Kaisha, priority 1980, dated 1982)
